The results in this text go back to patent US20100216736A2, “2'-CYANOPYRIMIDINE NUCLEOSIDE COMPOUND” (Taiho Pharmaceutical Co., Ltd., priority 2006, published 2010).

SMILES strings stand for the structures. In brackets after ≈: the same amount, converted by molar mass.

The subject of series [1] is Human colon cancer strain KM20C. The series is described as follows: Antitumor test using tumor-subcutaneously-implanted nude mouse system upon oral administration (equimolar dose). Conditions: once per day for 14 days, dose equimolar to 18 mg of CNDAC/kg of body weight per day, evaluated on the 29th day after grouping, vs untreated group. In kind it is in vivo, BALB/cA Jcl-nu mouse. The procedure:
Antitumor Test using Tumor-Subcutaneously-Implanted Nude Mouse System Upon Oral Administration
(§1) Human colon cancer strain KM20C subcutaneously subcultured in a BALB/cA Jcl-nu mouse (product of Clea Japan Inc.) was prepared into fragments of 2 mm×2 mm, and subcutaneously implanted into the backs of 6-week-old BALB/cA Jcl-nu mice. When the average tumor volume exceeded 100 mm^3, the length of each tumor was measured along the major axis and minor axis, and the tumor volume was calculated using the following equation. The mice were then divided into several groups to reduce variations in tumor volume among the groups (5 or 6 mice per group). Vt=½(Vl)×(Vs)^2, (Equation 1)
wherein Vt represents a tumor volume, Vl represents the length along the tumor major axis, and Vs represents the length along the tumor minor axis.
Test compounds were each dissolved or suspended in a 0.5% hydroxypropylmethylcellulose solution prepared with 100 mM citrate buffer (pH 5.0), and, from the day after the day of grouping, orally administered to the mice once per day for 14 days. The dose was set to be equimolar to 18 mg of CNDAC/kg of body weight per day.
On the 29th day after the day of grouping, with respect to the mice in each group, the longest diameter and shortest diameter of each of the subcutaneously implanted tumors were measured. The relative tumor volume (RTV) and the tumor growth inhibition rate (1R) were calculated using the following equation to evaluate antitumor effects. RTV=Vt1/Vt2, (Equation 2)
wherein RTV represents a relative tumor volume, Vt1 represents the tumor volume on the day of evaluation, and Vt2 represents the tumor volume on the day of grouping. IR(%)=[1−(RTVtest)/(RTVcont)]×100, (Equation 3)
wherein IR represents a tumor growth inhibition rate, RTVtest represents the average RTV value in a drug administration group, and RTVcont represents the average RTV value in an untreated group.

Series [2] can be described thus: Measurement of water solubility. Conditions: for solubility at 75 min: water, 37 °C, thermodynamic from solid.
Procedure: Measurement of Water Solubility
Test compounds (2 mg or more) were each suspended in water (1 ml), then sonicated for 10 seconds, and incubated at 37° C. for 75 minutes. After filtration through a membrane filter (Millex-LG, 0.2 μm, product of Millipore Corporation), 100 μl of the obtained filtrate was diluted with acetonitrile (100 μl), and analyzed using a high performance liquid chromatograph apparatus.
The solubility of each test compound in water was calculated from the calibration curve.
In series [3] the test system is Human colon cancer strain KM20C. The series is described as follows: Antitumor test using tumor-subcutaneously-implanted nude mouse system upon oral administration at an equitoxic dose. In kind it is in vivo, BALB/cA Jcl-nu mouse. Conditions: once per day for 14 days; for tumor course after completion of administration (regrowth): 20th to 25th day after grouping (about 1 week after completion of administration). The protocol: Antitumor Test of CNDAC, P-CNDAC, and Compounds 1 and 11 of the Present Invention using Tumor-Subcutaneously-Implanted Nude Mouse System Upon Oral Administration at an Equitoxic Dose.
as §1, with “On” for “When”, “15th day after the day of implantation,” for “average tumor volume exceeded 100 mm^3,”, “Vt=1/2(Vl)×(Vs)2” for “Vt=½(Vl)×(Vs)^2,”, “5) wherein Vt represents a tumor volume, Vl represents the length along the tumor major axis, and Vs represents the length along the tumor minor axis.” for “1)”
CNDAC, P-CNDAC, and Compounds 1 and 11 were each dissolved or suspended in a 0.5% hydroxypropylmethylcellulose solution prepared with 100 mM citrate buffer (pH 5.0), and, from the day after the day of grouping, orally administered at an equitoxic dose once per day for 14 days.
With respect to the mice in each group, the length of each of the subcutaneously implanted tumors was measured along the major axis and minor axis twice a week. RTV was calculated as a reference of tumor growth using the following equation to evaluate antitumor effects. RTV=Vt1/Vt2, (Equation 6)
wherein RTV represents a relative tumor volume, Vt1 represents the tumor volume on the day of evaluation, and Vt2 represents the tumor volume on the day of grouping.

Series [4] is described as follows: Pharmacokinetic testing in SD (IGS) rats, oral administration, CNDAC serum concentration. It is filed as in vivo. Conditions: 10 mg/kg of body weight, rat, dose equivalent to 10 mg of CNDAC/kg of body weight, 0 to 8 hours after administration. The procedure:
Pharmacokinetic Testing in SD (IGS) Rats
Test compounds were orally administered to SD (IGS) rats (product of Charles River Laboratories Japan, Inc.; 8 weeks old), and, based on the CNDAC serum concentration in the rats, orally administered absorbability and in vivo activation into CNDAC were evaluated.
In the morning of the test day, predetermined amounts of test compounds were each dissolved or suspended in a 0.5% hydroxypropylmethylcellulose solution prepared with 100 mM citrate buffer (pH 4.5), and orally administered. CNDAC was administered at a dose of 10 mg/kg of body weight, and other test compounds were administered at a dose equivalent to 10 mg of CNDAC/kg of body weight. Blood was collected from the jugular vein 0.5, 1, 2, 4, 6, and 8 hours after administration of the test compounds (two or three rats per point) to obtain serum. The serum concentrations of the compounds and CNDAC were measured using LC/MS, and the area under the curve (AUC) of the CNDAC serum concentration from 0 to 8 hours after administration were calculated.

Consider `CCCCC(CCCC)OC(=O)Nc1ccn([C@@H]2O[C@H](CO)[C@@H](O)[C@@H]2C#N)c(=O)n1` [Compound 2, 4-N-(Nonan-5-yloxycarbonyl)-2′-cyano-2′-deoxy-1-β-D-arabinofuranosylcytosine], for which the melting point amounted to 83.6 °C.

The compound `CCCCCCOC(=O)OC[C@H]1O[C@@H](n2ccc(N)nc2=O)[C@@H](C#N)[C@@H]1O` [Compound 8, 5′-O-(n-Hexyloxycarbonyl)-2′-cyano-2′-deoxy-1-β-D-arabinofuranosylcytosine] registered a melting point of 154.1 °C. In series [1], the “IR (%) tumor growth inhibition rate” value was 76%. This compound also gave a solubility at 75 min in series [2] of more than 50 µg/mL.

As to `CC(C)CC(CC(C)C)OC(=O)OC[C@H]1O[C@@H](n2ccc(N)nc2=O)[C@@H](C#N)[C@@H]1O` [Compound 14, 5′-O-(2,6-Dimethylheptan-4-yloxycarbonyl)-2′-cyano-2′-deoxy-1-β-D-arabinofuranosylcytosine], the melting point is 182.7 °C (dec.).

Regarding `CCCCC(CCCC)OC(=O)OC[C@H]1O[C@@H](n2ccc(N)nc2=O)[C@@H](C#N)[C@@H]1O` [Compound 11, 5′-O-(Nonan-5-yloxycarbonyl)-2′-cyano-2′-deoxy-1-β-D-arabinofuranosylcytosine], the melting point stood at 167.2 °C. Further, the “IR (%) tumor growth inhibition rate” value in series [1] turned out to be 93%. For the same compound, in series [3], the “reduction of tumor volume (RTV), FIG. 1” value is “greater reduction of tumor volume than CNDAC and P-CNDAC”; the “tumor course after completion of administration (regrowth)” value (“tumor course after completion” for short) is reported as “the tumor size continued to reduce even after completion of administration”. Also, in series [2], the solubility at 75 min came to 49.5 µg/mL (≈ 117 µM).

`N#C[C@H]1[C@H](O)[C@@H](CO)O[C@H]1n1ccc(N)nc1=O` [CNDAC, 2′-cyano-2′-deoxy-1-β-D-arabinofuranosylcytosine, reference compound]: in series [4], the AUC(0-t) is 493 ng·h/mL. Further, the “IR (%) tumor growth inhibition rate” value in series [1] was 54%. In series [3], the tumor disappearance result is given as “tumors did not disappear” and the “tumor course after completion” value is listed as “tumor regrowth was observed”. In series [2] (in water, 37° C.), the “water solubility, in words” value is “extremely high water solubility”. In series [2], the solubility at 75 min was more than 1000 µg/mL.

Regarding `CCCCCC/C=C\COC(=O)Nc1ccn([C@@H]2O[C@H](CO)[C@@H](O)[C@@H]2C#N)c(=O)n1` [Compound 7, 4-N—[(Z)-2-Nonen-1-yloxycarbonyl]-2′-cyano-2′-deoxy-1-β-D-arabinofuranosylcytosine], in series [1], the “IR (%) tumor growth inhibition rate” value was determined as 96%. In series [2], this compound had a solubility at 75 min of more than 50 µg/mL.

The compound `CC/C=C\CCCCCOC(=O)Nc1ccn([C@@H]2O[C@H](CO)[C@@H](O)[C@@H]2C#N)c(=O)n1` [Compound 3, 4-N—[(Z)-6-Nonen-1-yloxycarbonyl]-2′-cyano-2′-deoxy-1-β-D-arabinofuranosylcytosine] came in with a melting point of 72.4 °C.

Regarding `CCCCCCCCOC(=O)OC[C@H]1O[C@@H](n2ccc(N)nc2=O)[C@@H](C#N)[C@@H]1O` [Compound 10, 5′-O-(n-Octyloxycarbonyl)-2′-cyano-2′-deoxy-1-β-D-arabinofuranosylcytosine], the melting point was 143.1 °C. In addition, the “IR (%) tumor growth inhibition rate” value in series [1] stood at 89%. The same compound registered a solubility at 75 min in series [2] of more than 50 µg/mL.

Consider `CCCCCCCCOC(=O)Nc1ccn([C@@H]2O[C@H](CO)[C@@H](O)[C@@H]2C#N)c(=O)n1` [Compound 16, 4-N-(n-Octyloxycarbonyl)-2′-cyano-2′-deoxy-1-β-D-arabinofuranosylcytosine], for which the melting point stood at 67.5 °C. Also, the “IR (%) tumor growth inhibition rate” value in series [1] was determined as 38%.

`N#C[C@H]1[C@H](O)[C@@H](COC(=O)Oc2ccc(Cl)cc2)O[C@H]1n1ccc(N)nc1=O` [Compound 17, 5′-O-(4-Chlorophenyloxycarbonyl)-2′-cyano-2′-deoxy-1-β-D-arabinofuranosylcytosine] showed a melting point of 113 °C. The “IR (%) tumor growth inhibition rate” value in series [1] is on record as 58%.

In turn, `CCCCCCCOC(=O)OC[C@H]1O[C@@H](n2ccc(N)nc2=O)[C@@H](C#N)[C@@H]1O` [Compound 9, 5′-O-(n-Heptyloxycarbonyl)-2′-cyano-2′-deoxy-1-β-D-arabinofuranosylcytosine] yielded a melting point of 152.2 °C. For the same compound, in series [1], the “IR (%) tumor growth inhibition rate” value worked out at 78%. The compound also yielded a solubility at 75 min in series [2] of more than 50 µg/mL.

Regarding `CCCCCCCCCCOC(=O)Nc1ccn([C@@H]2O[C@H](CO)[C@@H](O)[C@@H]2C#N)c(=O)n1` [Compound 15, 4-N-(n-Decyloxycarbonyl)-2′-cyano-2′-deoxy-1-β-D-arabinofuranosylcytosine], the melting point was determined as 97 °C. Further, the “IR (%) tumor growth inhibition rate” value in series [1] is recorded as 22%.

`C=CCCCCCCCOC(=O)Nc1ccn([C@@H]2O[C@H](CO)[C@@H](O)[C@@H]2C#N)c(=O)n1` [Compound 6, 4-N-(8-Nonen-1-yloxycarbonyl)-2′-cyano-2′-deoxy-1-β-D-arabinofuranosylcytosine]: the melting point came to 72.7 °C.

Compound `CCCCCCCCCOC(=O)Nc1ccn([C@@H]2O[C@H](CO)[C@@H](O)[C@@H]2C#N)c(=O)n1` [Compound 1, 4-N-(n-Nonyloxycarbonyl)-2′-cyano-2′-deoxy-1-β-D-arabinofuranosylcytosine] displayed a melting point of 66 °C. The “IR (%) tumor growth inhibition rate” value in series [1] was determined as 96%. Also, in series [3], the “reduction of tumor volume (RTV), FIG. 1” value is “greater reduction of tumor volume than CNDAC and P-CNDAC”; the tumor disappearance entry is reported as “tumor disappearance was achieved in one of the five cases”; the “tumor course after completion” value is given as “the tumor size continued to reduce even after completion of administration”. In series [2], this compound showed a solubility at 75 min of 21.1 µg/mL (≈ 49.9 µM).

With `CCCCCCCCCCCCCCCC(=O)Nc1ccn([C@@H]2O[C@H](CO)[C@@H](O)[C@@H]2C#N)c(=O)n1` [P-CNDAC, 4-N-palmitoyl-2′-cyano-2′-deoxy-1-β-D-arabinofuranosylcytosine, reference compound], in series [3], the tumor disappearance result is on record as “tumors did not disappear” and the “tumor course after completion” value was “tumor regrowth was observed”. In series [2] (in water, 37° C.), the “water solubility, in words” value is “low water solubility”. The “Water Solubility” value in series [2] (in water, 37° C., 75 minutes, filtrate analysed by HPLC) was less than 0.5 µg/mL.

`CCCCCC/C=C/COC(=O)Nc1ccn([C@@H]2O[C@H](CO)[C@@H](O)[C@@H]2C#N)c(=O)n1` [Compound 5, 4-N—[(E)-2-Nonen-1-yloxycarbonyl]-2′-cyano-2′-deoxy-1-β-D-arabinofuranosylcytosine]: the melting point was 71.1 °C.

As to `CCCCC/C=C\CCOC(=O)Nc1ccn([C@@H]2O[C@H](CO)[C@H](O)[C@@H]2C#N)c(=O)n1` [Compound 4, 4-N—[(Z)-3-Nonen-1-yloxycarbonyl]-2′-cyano-2′-deoxy-1-β-D-arabinofuranosylcytosine], the “IR (%) tumor growth inhibition rate” value in series [1] came out at 93%.

Broadly, the melting point is the temperature, or range, at which the solid turns liquid. As a reminder, the solubility is the concentration that dissolves in the medium under given conditions. Read a low solubility as a poorly soluble substance. In general, AUC(0-t) refers to exposure summed from dosing to a finite time, without extrapolation to infinity.
